The record followed here is US7435837B2, “Dihydrobenzofuranyl alkanamine derivatives and methods for using same” (Wyeth, priority 2003, dated 2008).

Counter-ions that a name gives are not always drawn.

Usually melting point stands for the temperature, or range, at which the solid turns liquid. For `Cc1ccccc1-c1cccc2c1CC(CN)O2` (racemic) (as salt: hydrochloride) [Example 4, (±)-1-[4-(2-methylphenyl)-2,3-dihydro-1-benzofuran-2-yl]methanamine], the melting point lay within 231 to 234 °C.
`NCC1Cc2cccc(-c3ccc(F)c(Cl)c3)c2O1` (racemic) (as salt: hydrochloride) [Example 34, (±)-1-[7-(3-chloro-4-fluorophenyl)-2,3-dihydro-1-benzofuran-2-yl]methanamine]: the melting point was greater than 210 °C.
Under `Cc1ccccc1-c1cccc2c1CC(CN)O2` (single isomer, unassigned; (+)) (as salt: hydrobromid) [Example 5, (+)-1-[4-(2-methylphenyl)-2,3-dihydro-1-benzofuran-2-yl]methanamine] stands 232 to 233 °C; under `NCC1Cc2cccc(-c3cccc(C(F)(F)F)c3)c2O1` (single isomer, unassigned; (-)) (as salt: hydrochloride) [Example 135, (−)-1-{7-[3-(trifluoromethyl)phenyl]-2,3-dihydro-1-benzofuran-2-yl}methanamine], 184 to 186 °C; under `Cc1ccc(Cl)cc1-c1cc(F)cc2c1O[C@@H](CN)C2` (as salt: hydrochloride) [Example 548, {[(2R)-7-(5-chloro-2-methylphenyl)-5-fluoro-2,3-dihydro-1-benzofuran-2-yl]methyl}amine], 148 to 150 °C.
With `CC(C)(C)c1cc(Cl)cc2c1OC(CN)C2` (racemic) (as salt: hydrochloride) [Example 27, (±)-1-(7-tert-butyl-5-chloro-2,3-dihydro-1-benzofuran-2-yl)methanamine], the melting point lay within 229 to 231 °C.
Under `Cc1ccccc1-c1cccc2c1OC(CN)C2` (single isomer, unassigned; (-)) (as salt: hydrochloride) [Example 49, (−)-1-[7-(2-methylphenyl)-2,3-dihydro-1-benzofuran-2-yl]methanamine] stands 208 to 209 °C; under `NCC1Cc2cccc(/C=C/c3ccccc3)c2O1` (racemic) (as salt: hydrochloride) [Example 119, (±)-1-{7-[(E)-2-phenylvinyl]-2,3-dihydro-1-benzofuran-2-yl}methanamine], 209 to 211 °C.
On to `NCC1Cc2cc(Cl)cc(-c3ccccc3)c2O1` (racemic) (as salt: hydrochloride) [Example 84, (±)-1-(5-chloro-7-phenyl-2,3-dihydro-1-benzofuran-2-yl)methanamine], for which the melting point was 258 °C (dec.).
As to `Cc1cc(Cl)ccc1-c1cc(F)cc2c1O[C@@H](CN)C2` (as salt: hydrochloride) [Example 549, {[(2R)-7-(4-chloro-2-methylphenyl)-5-fluoro-2,3-dihydro-1-benzofuran-2-yl]methyl}amine], the melting point was in the range of 183 to 185 °C.
`CCNCC1Cc2cccc(-c3c(Cl)cccc3Cl)c2O1` (racemic) (as salt: hydrochloride) [Example 390, (±)-N-{[7-(2,6-dichlorophenyl)-2,3-dihydro-1-benzofuran-2-yl]methyl}ethanamine] yielded a melting point of 195 to 197 °C.
For `COc1ccc(-c2cccc3c2OC(CN)C3)c(OC)c1` (single isomer, unassigned; (-)) (as salt: hydrochloride) [Example 144, (−)-1-[7-(2,4-dimethoxyphenyl)-2,3-dihydro-1-benzofuran-2-yl]methanamine], the melting point lay within 166 to 168 °C.
On to `NCC1Cc2cc(F)cc(-c3ccccc3Cl)c2O1` (racemic) (as salt: hydrochloride) [Example 100, (±)-1-[7-(2-chlorophenyl)-5-fluoro-2,3-dihydro-1-benzofuran-2-yl]methanamine], for which the melting point is > 250 °C (dec.).
In the case of `NCC1Cc2cccc(-c3c(Cl)cccc3Cl)c2O1` (single isomer, unassigned; (-)) (as salt: hydrochloride) [Example 141, (−)-1-[7-(2,6-dichlorophenyl)-2,3-dihydro-1-benzofuran-2-yl]methanamine], the melting point was in the range of 207 to 209 °C.
As to `CC(C)c1cccc2c1OC(CN)C2` (racemic) (as salt: hydrochloride) [Example 18, (±)-(7-isopropyl-2,3-dihydro-1-benzofuran-2-yl)methylamine], the melting point is 160 to 164 °C (dec.).
Under `Cc1ccccc1-c1cc(C#N)cc2c1OC(CN)C2` (racemic) (as salt: hydrochloride) [Example 311, (±)-2-(aminomethyl)-7-(2-methylphenyl)-2,3-dihydro-1-benzofuran-5-carbonitrile] stands 127 to 129 °C; under `NCC1Cc2cccc(-c3cccc(Cl)c3)c2O1` (single isomer, unassigned; (+)) (as salt: hydrobromid) [Example 66, (+)-1-[7-(3-chlorophenyl)-2,3-dihydro-1-benzofuran-2-yl]methanamine], 187 to 189 °C.
As for `Cc1cccc(-c2cccc3c2OC(CN)C3)c1C` (racemic) (as salt: hydrochloride) [Example 154, (±)-1-[7-(2,3-dimethylphenyl)-2,3-dihydro-1-benzofuran-2-yl]methanamine], the melting point was greater than 225 °C.
`NCC1Cc2cccc(-c3ccccc3F)c2O1` (racemic) (as salt: hydrochloride) [Example 50, (±)-1-[7-(2-fluorophenyl)-2,3-dihydro-1-benzofuran-2-yl]methanamine]: the melting point was in the range of 244 to 246 °C.
`COc1ccc(-c2cccc3c2OC(CN)C3)cc1` (single isomer, unassigned; (-)) (as salt: hydrobromid) [Example 81, (−)-1-[7-(4-methoxyphenyl)-2,3-dihydro-1-benzofuran-2-yl]methanamine] displayed a melting point of 185 to 188 °C.
On to `CC(C)(C)c1cccc2c1OC(CN)C2` (racemic) (as salt: hydrochloride) [Example 24, (±)-1-(7-tert-butyl-2,3-dihydro-1-benzofuran-2-yl)methanamine], for which the melting point was 177 to 180 °C (dec.).
Under `NCC1Cc2cccc(-c3ccccc3C(F)(F)F)c2O1` (single isomer, unassigned; (-)) (as salt: hydrochloride) [Example 54, (−)-1-{7-[2-(trifluoromethyl)phenyl]-2,3-dihydro-1-benzofuran-2-yl}methanamine] stands 109 to 111 °C; under `CNCC1Cc2cccc(-c3c(Cl)cccc3Cl)c2O1` (single isomer, unassigned; (-)) (as salt: hydrochloride) [Example 434, (−)-{[7-(2,6-dichlorophenyl)-2,3-dihydro-1-benzofuran-2-yl]methyl}methylamine], 195 to 197 °C.
Compound `Cc1cccc(-c2cccc3c2OC(CN)C3)c1` (single isomer, unassigned; (+)) (as salt: hydrochloride) [Example 42, (+)-1-[7-(3-methylphenyl)-2,3-dihydro-1-benzofuran-2-yl]methanamine] gave a melting point of 196 to 198 °C.
The compound `NCC1Cc2cccc(-c3ccc(Cl)cc3Cl)c2O1` (racemic) (as salt: hydrochloride) [Example 83, (±)-1-[7-(2,4-dichlorophenyl)-2,3-dihydro-1-benzofuran-2-yl]methanamine] gave a melting point of 198 to 200 °C.
Next, `Cc1ccccc1-c1ccc(F)c2c1OC(CN)C2` (racemic) (as salt: hydrochloride) [Example 99, (±)-1-[4-fluoro-7-(2-methylphenyl)-2,3-dihydro-1-benzofuran-2-yl]methanamine]: 228 to 231 °C; `Cc1cccc(C)c1-c1cccc2c1OC(CN)C2` (racemic) (as salt: hydrochloride) [Example 56, (±)-1-[7-(2,6-dimethylphenyl)-2,3-dihydro-1-benzofuran-2-yl]methanamine]: greater than 250 °C; `CC(C)(C)c1cccc2c1OC(CN)C2` (single isomer, unassigned; (+)) (as salt: hydrochloride) [Example 26, (+)-1-(7-tert-butyl-2,3-dihydro-1-benzofuran-2-yl)methanamine]: 177 to 179 °C.
Turning to `Cc1cccc(C)c1-c1cccc2c1CC(CN)O2` (single isomer, unassigned; (+)) (as salt: hydrochloride) [Example 126, (+)-1-[4-(2,6-dimethylphenyl)-2,3-dihydro-1-benzofuran-2-yl]methanamine], the melting point is greater than 250 °C.
Take `COc1cccc(-c2cccc3c2OC(CN)C3)c1` (single isomer, unassigned; (+)) (as salt: hydrochloride) [Example 133, (+)-1-[7-(3-methoxyphenyl)-2,3-dihydro-1-benzofuran-2-yl]methanamine]: the melting point was in the range of 156 to 158 °C.
In the case of `NCC1Cc2cc(F)cc(-c3ccccc3C(F)(F)F)c2O1` (racemic) (as salt: hydrochloride) [Example 108, (±)-1-{5-fluoro-7-[2-(trifluoromethyl)phenyl]-2,3-dihydro-1-benzofuran-2-yl}methanamine], the melting point was 196 to 198 °C (dec.).
Compound `NCC1Cc2cc(F)cc(-c3ccccc3C(F)(F)F)c2O1` (single isomer, unassigned; (+)) (as salt: hydrochloride) [Example 152, (+)-1-{5-fluoro-7-[2-(trifluoromethyl)phenyl]-2,3-dihydro-1-benzofuran-2-yl}methanamine] showed a melting point of 193 to 197 °C.
`Cc1ccccc1-c1cc(F)cc2c1OC(CN)C2` (single isomer, unassigned; (+)) (as salt: hydrochloride) [Example 105, (+)-1-[5-fluoro-7-(2-methylphenyl)-2,3-dihydro-1-benzofuran-2-yl]methanamine] had a melting point of 227 to 230 °C.
Under `NCC1Cc2cccc(-c3cccc(F)c3)c2O1` (racemic) (as salt: hydrochloride) [Example 64, (±)-1-[7-(3-fluorophenyl)-2,3-dihydro-1-benzofuran-2-yl]methanamine] stands 200 to 202 °C.
